Test results published in paper PMC12406192, “Sustainable Joullié–Ugi and Continuous Flow Implementation Led to Novel Captopril-Inspired Broad-Spectrum Metallo-β-Lactamase Inhibitors” (Journal of Medicinal Chemistry, 2025).
Values after ≈ are worked out from the molar mass of the structure shown. Marks after values point to notes of the source that are not given here.

Legend:
[1] = test system: K. pneumoniae VA-416/02 (bla VIM‑4 +); assay: Imipenem MIC, broth microdilution, with fixed concentration of compound; assay type: cell-based; settings: for imipenem MIC, K. pneumoniae VA-416/02 (bla VIM‑4 +): compound at 32 μg/mL, median of three experiments
Experimental: (§1) In vitro antimicrobial susceptibility testing was performed according to established standards. […] The strains used in the study were described elsewhere.

[2] = test system: K. pneumoniae 7023 (bla VIM‑1 +); assay: as above; assay type: cell-based; settings: for imipenem MIC, K. pneumoniae 7023 (bla VIM‑1 +): compound at 32 μg/mL, median of three experiments
Experimental: as §1

[3] = test system: A. baumannii AC-54/97 (bla IMP‑2 +); assay: as above; assay type: cell-based; settings: for imipenem MIC, A. baumannii AC-54/97 (bla IMP‑2 +): compound at 32 μg/mL, median of three experiments
Experimental: as §1

[4] = test system: E. coli SI-G001 (bla NDM‑4 +); assay type: cell-based; settings: compound at 32 μg/mL; median of three experiments
Experimental: as §1

[5] = test system: E. coli SI–N003 (bla NDM‑7 +); assay type: cell-based; settings: compound at 32 μg/mL; median of three experiments
Experimental: as §1

[6] = test system: E. coli SI-M001 (bla NDM‑1 +); assay: Imipenem MIC, broth microdilution, with fixed concentration of compound; assay type: cell-based; settings: for imipenem MIC, E. coli SI-M001 (bla NDM‑1 +): compound at 32 μg/mL, median of three experiments
Experimental: (§2) In vitro antimicrobial susceptibility testing was performed according to established standards. […]. The strains used in the study were described elsewhere.

[7] = test system: S. marcescens SI-1591 (bla VIM‑2 +); assay: microbe, parasite or virus in culture; assay type: cell-based; settings: for imipenem MIC, S. marcescens SI-1591 (bla VIM‑2 +): compound at 32 μg/mL, median of three experiments
Experimental: as §1

IMP-1 = biological target: T1, IMP-1 (Serratia marcescens, UniProt P52699); assay: biochemical; settings: for inhibition at 50 µM: read-out: percentage of inhibition IMP-1
T1 construct: made in house; host or cells: E. coli
T1 sequence (P52699 19-246, looked up, species assumed): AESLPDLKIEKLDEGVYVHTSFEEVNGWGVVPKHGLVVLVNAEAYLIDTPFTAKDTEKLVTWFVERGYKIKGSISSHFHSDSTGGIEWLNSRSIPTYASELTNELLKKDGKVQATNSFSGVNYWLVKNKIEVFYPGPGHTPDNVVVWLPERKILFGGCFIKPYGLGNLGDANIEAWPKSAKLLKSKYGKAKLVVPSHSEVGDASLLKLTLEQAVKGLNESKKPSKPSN
Experimental: (§3) IC50 values were determined in a kinetic fluorescence-based in vitro assay as described previously. All compounds were preincubated with the recombinant protein for 30 min before addition of the fluorogenic substrate fluorocillin. , The inhibitory activity was also determined (expressed as the percentage of inhibition in the presence of 50 μM compound) using a spectrophotometric assay in which the hydrolysis of imipenem (the reporter substrate) was monitored (see Section for details).
(§4) The inhibitory activity of the compounds was determined using enzyme assays with recombinant NDM-1, VIM-1, VIM-2, IMP-1, and IMP-7. These enzymes were produced in E. coli and purified as previously described. , The fluorogenic substrate fluorocillin was synthesized according to the procedure described by Rukavishnikov et al. The assays were performed in 96-well format using black polystyrene plates (Corning, Corning, NY) at room temperature, and the measurements were carried out on the Tecan spectrophotometer Infinite F200 PRO (Tecan, Männedorf, Switzerland). The protein stock solutions were diluted in assay buffer (HEPES 50 mM, pH 7.5 containing 0.01%Triton X-100, buffer HX) to reach final concentrations of VIM-1–4 nM, IMP-7–0.1 nM; NDM-1–3 nM. Subsequently, 89 μL of the protein solution was mixed with 1 μL of the inhibitor diluted in DMSO (final DMSO concentration 1% at final assay volume of 100 μL) and incubated for 30 min. […] Negative controls were measured in the absence of enzyme (89 μL of assay buffer), whereas the positive controls were measured in the presence of enzyme and in the absence of inhibitors (1 μL of DMSO). Each measurement was performed in triplicate in three independent experiments. IC50 values were calculated using data obtained from measurements with at least eight different inhibitor concentrations, applying a sigmoidal dose–response (variable slope with four parameters) equation using GraphPad Prism 5 (GraphPad Software, La Jolla, CA) software. […] All assays were performed in at least in triplicate.

VIM-2 [8] = biological target: T2, VIM-2 (Escherichia coli, UniProt Q5U7L7); assay: biochemical; settings: read-out: percentage of inhibition VIM-2
T2 construct: made in house; host or cells: E. coli
Experimental: as §3, §4

NDM-1 [9] = biological target: T3, NDM-1 (Klebsiella pneumoniae, UniProt C7C422); assay: Spectrophotometric direct competition assay, imipenem hydrolysis (reporter substrate); assay type: biochemical; settings: for inhibition at 50 µM: read-out: percentage of inhibition NDM-1
T3 construct: made in house; host or cells: E. coli
T3 sequence (C7C422 29-270 limits assumed): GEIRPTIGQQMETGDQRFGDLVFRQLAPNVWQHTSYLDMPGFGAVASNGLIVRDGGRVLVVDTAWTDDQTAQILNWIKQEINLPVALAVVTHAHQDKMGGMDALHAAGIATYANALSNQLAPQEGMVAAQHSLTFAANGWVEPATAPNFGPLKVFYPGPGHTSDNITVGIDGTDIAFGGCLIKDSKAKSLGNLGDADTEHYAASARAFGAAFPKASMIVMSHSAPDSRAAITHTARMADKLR
Experimental: as §3, §4

[10] = biological target: T4, human angiotensin-converting enzyme 1 (ACE-1) (Homo sapiens, UniProt P12821); assay: ACE Activity Assay Kit, fluorogenic substrate; assay type: biochemical; settings: 50 μM inhibitor
T4 construct: purchased Sigma-Aldrich CS0002
T4 sequence (P12821 30-1306): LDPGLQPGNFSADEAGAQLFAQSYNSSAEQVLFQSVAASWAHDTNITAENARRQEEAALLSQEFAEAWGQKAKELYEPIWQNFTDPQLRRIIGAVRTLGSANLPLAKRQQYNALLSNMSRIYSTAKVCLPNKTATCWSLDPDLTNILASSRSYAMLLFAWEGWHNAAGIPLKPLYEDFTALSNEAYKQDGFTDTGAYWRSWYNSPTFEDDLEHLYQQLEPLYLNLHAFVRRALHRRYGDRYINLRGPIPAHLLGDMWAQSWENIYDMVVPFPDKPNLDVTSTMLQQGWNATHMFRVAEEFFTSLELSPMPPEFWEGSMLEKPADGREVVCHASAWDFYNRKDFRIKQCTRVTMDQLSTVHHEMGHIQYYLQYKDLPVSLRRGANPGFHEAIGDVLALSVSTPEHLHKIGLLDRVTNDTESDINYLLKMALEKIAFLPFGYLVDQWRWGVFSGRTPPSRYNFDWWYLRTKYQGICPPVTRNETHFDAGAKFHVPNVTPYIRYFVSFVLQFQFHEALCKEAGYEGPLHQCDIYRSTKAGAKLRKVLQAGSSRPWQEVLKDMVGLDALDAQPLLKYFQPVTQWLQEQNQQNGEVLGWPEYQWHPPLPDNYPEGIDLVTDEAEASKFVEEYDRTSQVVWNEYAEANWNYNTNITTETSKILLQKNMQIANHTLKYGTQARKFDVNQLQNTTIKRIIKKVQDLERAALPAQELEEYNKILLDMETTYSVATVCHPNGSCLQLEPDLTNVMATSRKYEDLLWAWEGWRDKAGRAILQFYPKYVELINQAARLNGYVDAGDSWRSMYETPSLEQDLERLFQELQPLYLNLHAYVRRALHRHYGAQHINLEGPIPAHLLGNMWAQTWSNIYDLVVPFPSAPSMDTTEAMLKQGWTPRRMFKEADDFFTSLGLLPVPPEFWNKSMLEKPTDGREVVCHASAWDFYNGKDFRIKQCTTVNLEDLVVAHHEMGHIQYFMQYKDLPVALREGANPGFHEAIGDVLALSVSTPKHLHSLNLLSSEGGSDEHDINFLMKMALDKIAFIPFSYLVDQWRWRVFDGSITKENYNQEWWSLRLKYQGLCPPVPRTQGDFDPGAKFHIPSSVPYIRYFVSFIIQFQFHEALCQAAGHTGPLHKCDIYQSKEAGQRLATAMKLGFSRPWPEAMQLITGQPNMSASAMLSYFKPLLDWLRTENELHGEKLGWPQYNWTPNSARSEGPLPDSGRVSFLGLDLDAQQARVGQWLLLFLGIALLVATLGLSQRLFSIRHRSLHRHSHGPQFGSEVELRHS
Experimental: To assess the selectivity of the compounds, their inhibitory activity on human angiotensin-converting enzyme 1 (ACE-1) was performed using the ACE Activity Assay Kit (Sigma-Aldrich cat. No. CS0002). […] Captopril (racemic mixture, D- and L-stereoisomers) was used as control in these experiments.

VIM-2 [11] = biological target: T2, VIM-2; assay: biochemical; settings: competitive model, imipenem reporter substrate; read-out: K i VIM-2
NDM-1 [12] = biological target: T3, NDM-1; assay: Kinetic fluorescence-based in vitro assay with fluorocillin substrate (IC50); assay type: biochemical; settings: 30 min preincubation
Experimental: as §3, §4

[13] = test system: P. aeruginosa T2325 (bla IMP‑1 +); assay: Imipenem MIC, broth microdilution, with fixed concentration of compound; assay type: cell-based; settings: for imipenem MIC, P. aeruginosa T2325 (bla IMP‑1 +): compound at 128 μg/mL, median of three experiments
Experimental: as §1

[14] = test system: K. pneumoniae T2216 (bla VIM‑1 +); assay: as above; assay type: cell-based; settings: for imipenem MIC, K. pneumoniae T2216 (bla VIM‑1 +): compound at 128 μg/mL, median of three experiments
Experimental: as §1

[15] = test system: K. pneumoniae T2301 (bla NDM‑1 +); assay: as above; assay type: cell-based; settings: for imipenem MIC, K. pneumoniae T2301 (bla NDM‑1 +): compound at 128 μg/mL, median of three experiments
Experimental: as §2

VIM-1 = biological target: T5, VIM-1 (Pseudomonas aeruginosa, UniProt A0A0F7KYQ8); assay: Kinetic fluorescence-based in vitro assay with fluorocillin substrate (IC50); assay type: biochemical
T5 construct: made in house; host or cells: E. coli
Experimental: as §3, §4

IMP-7 = IMP-7 (Pseudomonas aeruginosa, UniProt Q93AU3); assay: as above; assay type: biochemical; settings: 30 min preincubation
IMP-7, sequence (Q93AU3 entry or part of it): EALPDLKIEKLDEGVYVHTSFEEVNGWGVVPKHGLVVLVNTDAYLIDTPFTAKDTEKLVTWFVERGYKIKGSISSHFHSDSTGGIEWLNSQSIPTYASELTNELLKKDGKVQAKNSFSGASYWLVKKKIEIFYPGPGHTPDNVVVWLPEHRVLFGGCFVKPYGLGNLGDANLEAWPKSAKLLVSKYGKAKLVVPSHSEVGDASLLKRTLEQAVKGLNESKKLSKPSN
Experimental: as §3, §4

[16] = Chemical stability of the compounds; assay type: physicochemical

Compound | imipenem MIC, K. pneumoniae VA-416/02 (bla VIM‑4 +) [1] | imipenem MIC, K. pneumoniae 7023 (bla VIM‑1 +) [2] | imipenem MIC, A. baumannii AC-54/97 (bla IMP‑2 +) [3] | imipenem MIC, E. coli SI-G001 (bla NDM‑4 +) [4] | imipenem MIC, E. coli SI–N003 (bla NDM‑7 +) [5] | imipenem MIC, E. coli SI-M001 (bla NDM‑1 +) [6] | imipenem MIC, S. marcescens SI-1591 (bla VIM‑2 +) [7] | inhibition at 50 µM (IMP-1) | inhibition at 50 µM (VIM-2 [8]) | inhibition at 50 µM (NDM-1 [9]) | IC50 (NDM-1 [12]) | further results
CCC1(CC)c2ccccc2N(C(=O)[C@H](C)CSC(C)=O)[C@H]1C(N)=O [(S,R′)-14b, ((S)-3-((R)-2-Carbamoyl-3,3-diethylindolin-1-yl)-2-methyl-3-oxopropyl)ethanethioate] | 128 µg/mL | 64 µg/mL | 128 µg/mL | 64 µg/mL | 64 µg/mL | 32 µg/mL | 8 µg/mL | ≤ 10% | 15% | ≤ 10% | – | –
CCC1(CC)c2ccccc2N(C(=O)[C@H](C)CS)[C@@H]1C(N)=O [6c, (S)-3,3-Diethyl-1-((S)-3-mercapto-2-methylpropanoyl)indoline-2-carboxamide] | 128 µg/mL | 128 µg/mL | 128 µg/mL | 64 µg/mL | 64 µg/mL | 64 µg/mL | 8 µg/mL | 66% | 96% | 81% | 8.4 µM | inhibition at 50 µM [10]: < 5%; Ki (VIM-2 [11]): 0.16 ± 0.01 µM; Ki (IMP-1; competitive model, imipenem reporter substrate, read-out: K i IMP-1): 4.9 ± 0.3 µM; Ki (NDM-1 [9]; competitive model, imipenem reporter substrate, read-out: K i NDM-1): 4.5 ± 0.7 µM
CCC1(CC)c2ccccc2N(C(=O)[C@H](C)CS)[C@@H]1C(=O)NCC(=O)O [7c, ((S)-3,3-Diethyl-1-((S)-3-mercapto-2-methylpropanoyl)indoline-2-carbonyl)glycine] | 128 µg/mL | 128 µg/mL | 128 µg/mL | 64 µg/mL | 64 µg/mL | 64 µg/mL | 16 µg/mL | 27% | 55% | 43% | 41 µM | –
C[C@H](CS)C(=O)N1c2ccccc2C(C)(C)[C@H]1C(=O)NCC(=O)O [7a, ((S)-1-((S)-3-Mercapto-2-methylpropanoyl)-3,3-dimethylindoline-2-carbonyl)glycine] | 128 µg/mL | 128 µg/mL | 128 µg/mL | 64 µg/mL | 64 µg/mL | 64 µg/mL | 8 µg/mL | ≤ 10% | 38% | 28% | 40 µM | –
C[C@H](CS)C(=O)N1CCC[C@@H]1C(=O)O [D-captopril, reference compound] | – | – | – | – | – | – | – | – | – | 86% | – | –
C[C@H](CS)C(=O)N1c2ccccc2C(C)(C)[C@@H]1C(=O)NCC(=O)O [7b, ((R)-1-((S)-3-Mercapto-2-methylpropanoyl)-3,3-dimethylindoline-2-carbonyl)glycine] | 128 µg/mL | 128 µg/mL | 128 µg/mL | 64 µg/mL | 64 µg/mL | 64 µg/mL | 16 µg/mL | 13% | 58% | 74% | 8 µM | imipenem MIC, P. aeruginosa T2325 (bla IMP‑1 +) [13]: 32 ^c μg/mL; imipenem MIC, K. pneumoniae T2216 (bla VIM‑1 +) [14]: 4 ^c μg/mL; imipenem MIC, K. pneumoniae T2301 (bla NDM‑1 +) [15]: 8 ^c μg/mL; IC50 (VIM-1): 7.4 µM; IC50 (IMP-7): 8.6 µM
C[C@@H](O)[C@H]1C(=O)N2C(C(=O)O)=C(SCCN=CN)C[C@H]12 [imipenem, reference compound] | – | – | – | – | – | – | – | – | – | – | – | MIC ([13]; Pseudomonas aeruginosa, read-out: imipenem MIC, P. aeruginosa T2325 (bla IMP‑1 +)): 64 µg/mL (≈ 214 µM); MIC ([14]; Klebsiella pneumoniae, read-out: imipenem MIC, K. pneumoniae T2216 (bla VIM‑1 +)): 4 µg/mL (≈ 13.4 µM); MIC ([1]; Klebsiella pneumoniae, read-out: imipenem MIC, K. pneumoniae VA-416/02 (bla VIM‑4 +)): 128 µg/mL (≈ 428 µM); MIC ([2]; Klebsiella pneumoniae, read-out: imipenem MIC, K. pneumoniae 7023 (bla VIM‑1 +)): 128 µg/mL (≈ 428 µM); MIC ([3]; Acinetobacter baumannii, read-out: imipenem MIC, A. baumannii AC-54/97 (bla IMP‑2 +)): 128 µg/mL (≈ 428 µM); MIC ([6]; Escherichia coli, imipenem alone (compound: None)): 64 µg/mL (≈ 214 µM); MIC ([15]; Klebsiella pneumoniae, imipenem alone (compound: None)): 16 µg/mL (≈ 53.4 µM); MIC ([7]; Serratia marcescens, read-out: imipenem MIC, S. marcescens SI-1591 (bla VIM‑2 +)): 16 µg/mL (≈ 53.4 µM)
C[C@H](CS)C(=O)N1c2ccccc2C(C)(C)[C@@H]1C(N)=O [6b, (R)-1-((S)-3-Mercapto-2-methylpropanoyl)-3,3-dimethylindoline-2-carboxamide] | – | – | – | – | – | – | – | – | – | – | 4.1 µM | imipenem MIC, P. aeruginosa T2325 (bla IMP‑1 +) [13]: 64 ^c μg/mL; imipenem MIC, K. pneumoniae T2216 (bla VIM‑1 +) [14]: 4 ^c μg/mL; chemical stability (in words) [16]: lower chemical stability; imipenem MIC, K. pneumoniae T2301 (bla NDM‑1 +) [15]: 16 ^c μg/mL; IC50 (VIM-1): 0.7 µM; IC50 (IMP-7): 1.8 µM
C[C@H](CS)C(=O)N1c2ccccc2C(C)(C)[C@H]1C(N)=O [6a, (S)-1-((S)-3-Mercapto-2-methylpropanoyl)-3,3-dimethylindoline-2-carboxamide] | – | – | – | – | – | – | – | – | – | – | 17.9 µM | chemical stability (in words) [16]: not very stable
C[C@H](CS)C(=O)N1CCC[C@H]1C(=O)O [L-captopril, reference compound] | – | – | – | – | – | – | – | – | – | 76% | – | –
CCC1(CC)c2ccccc2N(C(=O)[C@H](C)CS)[C@H]1C(=O)NCC(=O)O [7d, ((R)-3,3-Diethyl-1-((S)-3-mercapto-2-methylpropanoyl)indoline-2-carbonyl)glycine] | 128 µg/mL | 128 µg/mL | 128 µg/mL | 64 µg/mL | 64 µg/mL | 64 µg/mL | 16 µg/mL | 17% | 69% | 67% | 10 µM | –
CC(=O)SC[C@@H](C)C(=O)N1c2ccccc2C2(CCCCC2)[C@H]1C(N)=O [(S,S′)-14c, ((S)-3-((S)-2′-Carbamoylspiro[cyclohexane-1,3′-indolin]-1′-yl)-2-methyl-3-oxopropyl)ethanethioate] | 128 µg/mL | 64 µg/mL | 128 µg/mL | 32 µg/mL | 32 µg/mL | 16 µg/mL | 8 µg/mL | ≤ 10% | 17% | ≤ 10% | – | –
